Experimental data from ChEMBL document CHEMBL3431459, “Roche carnitine palmitoyltransferase modulator screening data (supplementary data associated with the publication CHEMBL2216752)”.
Values after ≈ are worked out from the molar mass of the structure shown.

How the values were obtained:
[1] = SUPPLEMENTARY: Lyophilisation Solubility Assay (LYSA); format: physicochemical; settings: read-out: Kinetic_solubility
[2] = molecular target: T1, Carnitine O-palmitoyltransferase 1, muscle isoform (Homo sapiens, UniProt Q92523); assay: SUPPLEMENTARY: Inhibition of Carnitine palmitoyltransferase 1, muscle isoform; set-up: species or system Muscle tissue
T1 sequence (Q92523 whole entry): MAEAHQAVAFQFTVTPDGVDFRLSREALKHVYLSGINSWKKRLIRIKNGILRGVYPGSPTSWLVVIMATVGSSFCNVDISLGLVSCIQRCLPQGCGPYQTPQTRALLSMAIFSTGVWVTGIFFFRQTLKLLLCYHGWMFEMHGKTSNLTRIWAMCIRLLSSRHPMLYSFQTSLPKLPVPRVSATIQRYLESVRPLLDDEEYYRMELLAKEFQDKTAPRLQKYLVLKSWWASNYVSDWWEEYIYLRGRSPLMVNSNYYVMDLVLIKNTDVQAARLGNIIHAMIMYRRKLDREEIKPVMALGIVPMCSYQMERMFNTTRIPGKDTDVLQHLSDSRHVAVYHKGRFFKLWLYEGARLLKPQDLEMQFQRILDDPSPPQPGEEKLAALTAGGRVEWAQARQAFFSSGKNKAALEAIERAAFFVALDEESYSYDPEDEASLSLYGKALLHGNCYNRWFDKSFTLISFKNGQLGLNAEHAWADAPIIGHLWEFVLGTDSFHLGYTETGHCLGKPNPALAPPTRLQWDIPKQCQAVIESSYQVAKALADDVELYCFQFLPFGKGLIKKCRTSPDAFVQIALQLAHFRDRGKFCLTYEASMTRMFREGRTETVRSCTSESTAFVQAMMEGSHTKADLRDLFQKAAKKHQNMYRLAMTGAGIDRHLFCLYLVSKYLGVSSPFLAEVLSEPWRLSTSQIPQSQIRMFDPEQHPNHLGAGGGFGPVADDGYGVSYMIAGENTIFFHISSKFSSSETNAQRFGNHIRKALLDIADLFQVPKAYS

[3] = SUPPLEMENTARY: PAMPA permeability assay; format: physicochemical; settings: read-out: Permeability
[4] = molecular target: T2, Carnitine O-palmitoyltransferase 1, liver isoform (Rattus norvegicus, UniProt P32198); assay: (§1) SUPPLEMENTARY: Inhibition of Carnitine palmitoyltransferase 1, liver isoform
T2 sequence (P32198 whole entry): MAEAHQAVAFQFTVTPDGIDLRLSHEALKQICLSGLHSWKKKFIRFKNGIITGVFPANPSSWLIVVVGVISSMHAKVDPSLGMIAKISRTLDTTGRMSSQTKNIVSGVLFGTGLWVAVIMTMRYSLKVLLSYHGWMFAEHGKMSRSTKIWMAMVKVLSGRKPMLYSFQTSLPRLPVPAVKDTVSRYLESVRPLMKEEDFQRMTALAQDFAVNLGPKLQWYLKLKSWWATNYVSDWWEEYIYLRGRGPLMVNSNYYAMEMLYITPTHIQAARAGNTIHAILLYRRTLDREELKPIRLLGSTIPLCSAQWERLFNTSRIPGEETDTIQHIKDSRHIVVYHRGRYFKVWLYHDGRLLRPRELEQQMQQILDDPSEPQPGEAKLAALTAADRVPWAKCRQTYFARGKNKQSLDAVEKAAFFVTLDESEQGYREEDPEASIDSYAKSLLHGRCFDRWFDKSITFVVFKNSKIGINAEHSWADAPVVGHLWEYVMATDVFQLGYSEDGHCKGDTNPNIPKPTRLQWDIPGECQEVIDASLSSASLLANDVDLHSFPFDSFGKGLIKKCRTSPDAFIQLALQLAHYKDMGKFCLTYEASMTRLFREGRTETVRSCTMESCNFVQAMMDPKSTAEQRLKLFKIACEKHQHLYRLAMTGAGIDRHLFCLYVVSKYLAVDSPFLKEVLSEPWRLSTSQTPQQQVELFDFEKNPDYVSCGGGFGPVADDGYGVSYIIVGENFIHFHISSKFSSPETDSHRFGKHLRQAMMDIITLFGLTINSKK

[5] = molecular target: T3, Carnitine O-palmitoyltransferase 1, liver isoform (Homo sapiens, UniProt P50416); assay: as §1
T3 sequence (P50416 whole entry): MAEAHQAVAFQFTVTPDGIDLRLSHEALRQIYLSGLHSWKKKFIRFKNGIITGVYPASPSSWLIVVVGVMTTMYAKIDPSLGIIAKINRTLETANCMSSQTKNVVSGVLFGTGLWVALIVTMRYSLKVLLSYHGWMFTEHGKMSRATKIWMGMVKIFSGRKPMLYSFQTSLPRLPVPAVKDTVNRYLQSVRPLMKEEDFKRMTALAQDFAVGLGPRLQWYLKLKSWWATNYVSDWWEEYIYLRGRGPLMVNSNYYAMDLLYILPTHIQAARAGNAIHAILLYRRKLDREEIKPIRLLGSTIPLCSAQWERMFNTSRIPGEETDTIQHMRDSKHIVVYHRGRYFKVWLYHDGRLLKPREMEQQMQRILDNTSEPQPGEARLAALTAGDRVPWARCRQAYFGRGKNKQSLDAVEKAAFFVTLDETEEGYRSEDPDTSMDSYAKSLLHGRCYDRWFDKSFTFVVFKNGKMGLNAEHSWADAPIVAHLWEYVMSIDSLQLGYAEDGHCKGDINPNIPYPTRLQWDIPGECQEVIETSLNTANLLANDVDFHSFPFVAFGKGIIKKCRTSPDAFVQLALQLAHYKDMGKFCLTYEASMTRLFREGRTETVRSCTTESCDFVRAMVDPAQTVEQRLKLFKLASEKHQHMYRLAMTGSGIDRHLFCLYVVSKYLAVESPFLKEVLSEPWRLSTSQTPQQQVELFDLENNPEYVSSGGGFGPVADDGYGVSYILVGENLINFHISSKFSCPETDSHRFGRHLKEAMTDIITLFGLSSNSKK

[6] = SUPPLEMENTARY: Lipophilicity (log D) Determination by high-throughput shake-flask; format: physicochemical; settings: octanol/water
[7] = molecular target: T4, Carnitine O-palmitoyltransferase 2, mitochondrial (Homo sapiens, UniProt P23786); assay: (§2) SUPPLEMENTARY: Inhibition of Carnitine palmitoyltransferase 2
T4 sequence (P23786 whole entry): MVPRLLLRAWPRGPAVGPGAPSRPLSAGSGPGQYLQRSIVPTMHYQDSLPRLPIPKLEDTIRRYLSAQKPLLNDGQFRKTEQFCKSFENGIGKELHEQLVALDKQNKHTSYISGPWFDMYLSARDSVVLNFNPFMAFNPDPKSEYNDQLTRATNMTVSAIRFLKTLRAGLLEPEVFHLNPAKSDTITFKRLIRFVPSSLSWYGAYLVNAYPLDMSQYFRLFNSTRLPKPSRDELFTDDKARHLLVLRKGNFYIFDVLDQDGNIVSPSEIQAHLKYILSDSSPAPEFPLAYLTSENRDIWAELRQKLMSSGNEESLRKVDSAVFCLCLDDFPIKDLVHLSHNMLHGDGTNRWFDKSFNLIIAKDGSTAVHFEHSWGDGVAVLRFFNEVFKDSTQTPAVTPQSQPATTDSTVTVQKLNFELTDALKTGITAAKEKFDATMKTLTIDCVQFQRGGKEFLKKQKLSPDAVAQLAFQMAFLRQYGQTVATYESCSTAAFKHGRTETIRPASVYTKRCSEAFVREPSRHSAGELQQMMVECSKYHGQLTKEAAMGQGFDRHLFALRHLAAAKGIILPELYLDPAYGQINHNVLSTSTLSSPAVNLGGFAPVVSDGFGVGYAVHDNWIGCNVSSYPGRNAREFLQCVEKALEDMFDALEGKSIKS

[8] = molecular target: T5, Carnitine O-palmitoyltransferase 2, mitochondrial (Rattus norvegicus, UniProt P18886); assay: as §2
T5 sequence (P18886 whole entry): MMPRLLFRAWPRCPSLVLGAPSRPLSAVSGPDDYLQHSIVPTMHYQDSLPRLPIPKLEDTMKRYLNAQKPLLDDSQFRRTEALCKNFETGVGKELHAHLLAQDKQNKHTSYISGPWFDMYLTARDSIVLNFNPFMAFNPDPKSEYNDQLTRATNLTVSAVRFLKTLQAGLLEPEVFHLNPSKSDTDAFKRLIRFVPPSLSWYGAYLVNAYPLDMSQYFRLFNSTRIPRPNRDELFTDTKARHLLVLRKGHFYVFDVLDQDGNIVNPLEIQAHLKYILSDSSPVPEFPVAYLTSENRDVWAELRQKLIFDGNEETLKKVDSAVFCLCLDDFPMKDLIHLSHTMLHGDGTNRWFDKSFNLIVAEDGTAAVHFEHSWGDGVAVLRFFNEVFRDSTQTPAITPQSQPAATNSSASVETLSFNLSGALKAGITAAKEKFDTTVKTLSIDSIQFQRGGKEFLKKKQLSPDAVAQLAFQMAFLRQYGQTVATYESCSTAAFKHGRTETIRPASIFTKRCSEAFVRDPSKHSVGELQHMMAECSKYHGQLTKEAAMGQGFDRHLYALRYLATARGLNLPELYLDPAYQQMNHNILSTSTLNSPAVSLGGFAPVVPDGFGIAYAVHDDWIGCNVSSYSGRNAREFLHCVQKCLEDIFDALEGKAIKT

| SMILES | solubility kinetic [1] [µg/mL] | IC50 [2] [nM] | Papp [3] [×10⁻⁶ cm/s] | IC50 [4] [nM] | IC50 [5] [nM] | logD [6] | IC50 [7] [nM] | IC50 [8] [nM] |
| --- | --- | --- | --- | --- | --- | --- | --- | --- |
| O=C(COc1ccccc1)N1CCCC[C@@H]1c1nc(-c2cccc(-c3nnco3)c2)n[nH]1 | 26 (≈ 60.4 µM) | 748 | 3.05 | 388 | 80 | 2.66 | 86100 | – |
| O=C(COc1ccccc1)N1CCCCC1c1cc(-c2ccccc2)n[nH]1 (configuration not stated) | 7 (≈ 19.4 µM) | > 100000 | 0.53 | 375 | 159 | 3.63 | 60600 | – |
| COc1ccc(Cl)cc1S(=O)(=O)N1CCCCc2ccc(C(=O)Nc3ccc(C(=O)O)c(Cl)c3)cc21 | 36 (≈ 65.5 µM) | 3010 | 2.54 | 188 | 370 | 0.66 | 12000 | – |
| NNC(=O)c1cccc(-c2n[nH]c([C@H]3CCCCN3C(=O)COc3ccccc3)n2)c1 | 87 (≈ 207 µM) | > 100000 | 2.02 | 1630 | 264 | 1.65 | 23500 | – |
| COc1ccc(Cl)cc1S(=O)(=O)N1CCOc2ccc(C(=O)Nc3nc(CC(=O)O)cs3)cc21 | 26 (≈ 49.6 µM) | 423 | 1.62 | – | 50.5 | -0.01 | > 100000 | > 100000 |
| COc1ccc(Cl)cc1CN1C(=O)OCc2ccc(C(=O)Nc3ccc(CC(=O)O)cc3)cc21 | 44 (≈ 91.5 µM) | 13000 | 1.48 | – | 294 | 0.06 | > 100000 | > 100000 |
| COc1ccc(Cl)cc1S(=O)(=O)N1CCCCc2ccc(C(=O)Nc3ccc(C(=O)O)cc3)cc21 | 211 (≈ 410 µM) | 14500 | 2.9 | 181 | 289 | 1.5 | 17600 | – |
| O=C(O)c1ccc(NC(=O)c2ccc3c(c2)N(S(=O)(=O)c2cccc(Cl)c2)CCO3)cc1 | 2 (≈ 4.23 µM) | > 100000 | 3.01 | 89.8 | 66.4 | 2.92 | 94700 | – |
| CCN(CC)C(=O)c1cncc(-c2noc([C@H]3CCCCN3C(=O)COc3ccccc3)n2)c1 | 431 (≈ 930 µM) | > 100000 | 5.44 | 354 | 217 | 2.5 | 9180 | – |
| O=C(COc1ccccc1)N1CCCC[C@@H]1c1nc(-c2cccc(O)c2)no1 | 7 (≈ 18.4 µM) | > 100000 | 0.65 | 97.9 | 36.4 | 3.24 | > 100000 | – |
| O=C(COc1ccccc1)N1CCCC[C@@H]1c1nc(-c2cccc(B(O)O)c2)no1 | 11 (≈ 27 µM) | 30600 | 4.15 | 205 | 67.2 | 2.16 | 15600 | – |
| O=C(O)COc1cccc(-c2noc([C@H]3CCCCN3C(=O)COc3ccccc3)n2)c1 | > 547 | 45900 | 0.37 | 594 | 196 | -0.64 | 19800 | – |
| COc1ccc(-c2noc(C3C[S+]([O-])CCN3C(=O)COc3ccccc3)n2)cc1 (configuration not stated) | 132 (≈ 309 µM) | > 100000 | 3.4 | 244 | 164 | 2.19 | > 100000 | – |
| COCCN(C)C(=O)c1cncc(-c2noc([C@H]3CCCCN3C(=O)COc3ccccc3)n2)c1 | > 559 | > 100000 | 4.13 | 469 | 165 | 1.83 | 7350 | – |
| O=C(COc1ccccc1)N1CCCC[C@@H]1c1nc(-c2cccc(-c3n[nH]c(=O)o3)c2)n[nH]1 | 24 (≈ 53.8 µM) | > 100000 | 1.7 | 367 | 115 | 2.42 | 34000 | – |
| CNC(=O)c1cncc(-c2noc([C@H]3CCCCN3C(=O)COc3ccccc3)n2)c1 | 362 (≈ 859 µM) | > 100000 | 3.8 | 422 | 203 | 2.09 | 88500 | – |
